Results reported in PubChem BioAssay AID330 (DTP/NCI, 2004).
“And” between values parts separate entries of the source, which are not always exact repeats. Equal values may be shown once. Toxic doses and inconclusive results are not listed.

Tested on: P388 leukemia ip, CD2F1 mice, survival T/C
Test: NCI In Vivo Anticancer Drug Screen. Data for tumor model P388 Leukemia (intraperitoneal) in CD2F1 (CDF1) mice
Details: endpoint: median survival time, higher = longer survival
Procedure, shortened: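 Mice carrying the transplanted tumor received test compound or vehicle. Survival was recorded in each group, and the value is the treated-group measurement divided by that of the vehicle-treated control group.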

[1] = dose: 25.0 mg/kg/injection, schedule: Q04DX003 (ip), vehicle: saline with Tween-80
[2] = dose: 60.0 mg/kg/injection, schedule: Q01DX005 (ip), vehicle: Klucel (hydroxypropylcellulose) (HPC)
[3] = dose: 120.0 mg/kg/injection, schedule: Q01DX005 (ip), vehicle: Klucel (hydroxypropylcellulose) (HPC)
[4] = dose: 240.0 mg/kg/injection, schedule: Q01DX005 (ip), vehicle: Klucel (hydroxypropylcellulose) (HPC)
[5] = dose: 50.0 mg/kg/injection, schedule: Q01DX009 (ip), vehicle: saline with Tween-80
[6] = dose: 50.0 mg/kg/injection, schedule: Q01DX009 (ip), vehicle: saline
[7] = dose: 50.0 mg/kg/injection, schedule: Q01DX005 (ip), vehicle: saline with Tween-80
[8] = dose: 100.0 mg/kg/injection, schedule: Q01DX005 (ip), vehicle: saline with Tween-80
[9] = dose: 200.0 mg/kg/injection, schedule: Q01DX005 (ip), vehicle: saline with Tween-80
[10] = dose: 60.0 mg/kg/injection, schedule: Q01DX005 (ip), vehicle: saline with Tween-80
[11] = dose: 120.0 mg/kg/injection, schedule: Q01DX005 (ip), vehicle: saline with Tween-80
[12] = dose: 240.0 mg/kg/injection, schedule: Q01DX005 (ip), vehicle: saline with Tween-80
[13] = dose: 6.25 mg/kg/injection, schedule: Q01DX009 (ip), vehicle: saline with Tween-80
[14] = dose: 12.5 mg/kg/injection, schedule: Q01DX009 (ip), vehicle: saline with Tween-80
[15] = dose: 25.0 mg/kg/injection, schedule: Q01DX009 (ip), vehicle: saline with Tween-80
[16] = dose: 100.0 mg/kg/injection, schedule: Q01DX009 (ip), vehicle: saline with Tween-80
[17] = dose: 200.0 mg/kg/injection, schedule: Q01DX009 (ip), vehicle: saline with Tween-80

With `C[C@@H]1C[C@@]2(C)[C@@H](CC[C@@H]3[C@@H]2CC[C@@]2(C)[C@H]3CC[C@]2(C)O)CC1=O` the T/C (dose: 25.0 mg/kg/injection, schedule: Q01DX009 (ip), vehicle: saline sonified) was 95 % of control, the T/C [1] was 100 % of control and the T/C (dose: 50.0 mg/kg/injection, schedule: Q01DX009 (ip), vehicle: saline sonified) was 86 % of control. The T/C (dose: 50.0 mg/kg/injection, schedule: Q04DX003 (ip), vehicle: saline with Tween-80) was 100 % of control, the T/C (dose: 100.0 mg/kg/injection, schedule: Q01DX009 (ip), vehicle: saline sonified) was 95 % of control and the T/C (dose: 100.0 mg/kg/injection, schedule: Q04DX003 (ip), vehicle: saline with Tween-80) was 100 % of control.
With `CCSc1n[nH]c(=O)n1C` the T/C (dose: 50.0 mg/kg/injection, schedule: Q01DX005 (ip), vehicle: saline) was 99 % of control and 110 % of control, the T/C (dose: 100.0 mg/kg/injection, schedule: Q01DX005 (ip), vehicle: saline) was 108 % of control and 114 % of control and 97 % of control and the T/C (dose: 200.0 mg/kg/injection, schedule: Q01DX005 (ip), vehicle: saline) was 108 % of control and 121 % of control and 98 % of control. For the same molecule, the T/C (dose: 400.0 mg/kg/injection, schedule: Q01DX005 (ip), vehicle: saline) was 101 % of control and 109 % of control.
`CCOc1c(N=Nc2ccc(C)cc2)c(C)nn1C(=S)S` was tested, and the T/C [2] was 96 % of control, the T/C [3] was 105 % of control and the T/C [4] was 97 % of control.
For `CCOC(=O)Nc1cc2c(c(N)n1)N=C(c1ccccc1)CS2`, the T/C (dose: 75.0 mg/kg/injection, schedule: Q01DX005 (ip), vehicle: Klucel (hydroxypropylcellulose) (HPC)) was 100 % of control, the T/C (dose: 150.0 mg/kg/injection, schedule: Q01DX005 (ip), vehicle: Klucel (hydroxypropylcellulose) (HPC)) was 95 % of control and the T/C (dose: 300.0 mg/kg/injection, schedule: Q01DX005 (ip), vehicle: Klucel (hydroxypropylcellulose) (HPC)) was 97 % of control.
In the case of `CCCCCCC[CH2][Sn](=[O])[CH2]CCCCCCC`, the T/C (dose: 12.5 mg/kg/injection, schedule: Q01DX009 (ip), vehicle: saline) is reported as 100 % of control, the T/C (dose: 25.0 mg/kg/injection, schedule: Q01DX009 (ip), vehicle: saline) is reported as 116 % of control and the T/C [5] is reported as 101 % of control. For the same molecule, the T/C [6] was 100 % of control.
In the case of `c1ccc(C[n+]2ccc3ccccc3c2)cc1`, the T/C (dose: 6.25 mg/kg/injection, schedule: Q04DX003 (ip), vehicle: saline with Tween-80) is reported as 101 % of control, the T/C (dose: 12.5 mg/kg/injection, schedule: Q04DX003 (ip), vehicle: saline with Tween-80) is reported as 100 % of control and the T/C [1] is reported as 101 % of control.
`COC(=O)C(CC(C)C)NC(=O)C(Cc1ccc(O)cc1)N(C(=O)OCc1ccccc1)C(=O)OCc1ccccc1` (centres undefined) was tested, and the T/C [7] was 103 % of control, the T/C [8] was 94 % of control and the T/C [9] was 92 % of control.
For `Nc1[nH]n(-c2ccccc2)c(=O)c1C1c2ccccc2Sc2ccccc21`, the T/C [10] was 99 % of control, the T/C [11] was 99 % of control and the T/C [12] was 95 % of control.
`CCN(CC)CCSC(=O)N1c2ccccc2Sc2ccc(Cl)cc21` was tested, and the T/C (dose: 3.12 mg/kg/injection, schedule: Q01DX009 (ip), vehicle: saline with Tween-80) was 96 % of control, the T/C [13] was 104 % of control and 105 % of control and the T/C [14] was 96 % of control. The T/C [15] was 93 % of control and the T/C [5] was 100 % of control.
In the case of `O=C1c2ccccc2CCC1Cl` (centres undefined), the T/C (dose: 1.56 mg/kg/injection, schedule: Q01DX009 (ip), vehicle: DMSO) is reported as 100 % of control, the T/C (dose: 3.12 mg/kg/injection, schedule: Q01DX009 (ip), vehicle: DMSO) is reported as 103 % of control and the T/C (dose: 6.25 mg/kg/injection, schedule: Q01DX009 (ip), vehicle: DMSO) is reported as 94 % of control and 97 % of control. The T/C (dose: 12.5 mg/kg/injection, schedule: Q01DX009 (ip), vehicle: DMSO) was 102 % of control and the T/C (dose: 25.0 mg/kg/injection, schedule: Q01DX009 (ip), vehicle: DMSO) was 94 % of control.
With `CC(C)(CO)NCC(O)CS(=O)(=O)O` (centres undefined) the T/C (dose: 60.0 mg/kg/injection, schedule: Q01DX005 (ip), vehicle: saline) was 100 % of control, the T/C (dose: 120.0 mg/kg/injection, schedule: Q01DX005 (ip), vehicle: saline) was 100 % of control and the T/C (dose: 240.0 mg/kg/injection, schedule: Q01DX005 (ip), vehicle: saline) was 101 % of control.
With `CC1C(=O)C23CCC4C5(C)CCCC4(C4OCCN4C5)C2CCC1C3` (centres undefined) the T/C (dose: 1.0 mg/kg/injection, schedule: Q01DX009 (ip), vehicle: Klucel (hydroxypropylcellulose) (HPC)) was 99 % of control, the T/C (dose: 2.0 mg/kg/injection, schedule: Q01DX009 (ip), vehicle: Klucel (hydroxypropylcellulose) (HPC)) was 97 % of control and the T/C (dose: 4.0 mg/kg/injection, schedule: Q01DX009 (ip), vehicle: Klucel (hydroxypropylcellulose) (HPC)) was 98 % of control. For the same molecule, the T/C (dose: 8.0 mg/kg/injection, schedule: Q01DX009 (ip), vehicle: Klucel (hydroxypropylcellulose) (HPC)) was 97 % of control.
For `CC(=O)OCC1C(=O)OCC1C(=O)N1Cc2cc3ccccc3nc2C1` (centres undefined), the T/C [13] was 100 % of control, the T/C (dose: 8.0 mg/kg/injection, schedule: Q01DX009 (ip), vehicle: saline with Tween-80) was 104 % of control and 93 % of control and 97 % of control and the T/C [14] was 113 % of control. The T/C (dose: 16.0 mg/kg/injection, schedule: Q01DX009 (ip), vehicle: saline with Tween-80) was 105 % of control and 116 % of control and 98 % of control, the T/C [15] was 105 % of control and the T/C (dose: 32.0 mg/kg/injection, schedule: Q01DX009 (ip), vehicle: saline with Tween-80) was 113 % of control and 116 % of control and 97 % of control. For the same molecule, the T/C [5] was 105 % of control, the T/C (dose: 64.0 mg/kg/injection, schedule: Q01DX009 (ip), vehicle: saline with Tween-80) was 99 % of control and 105 % of control and the T/C (dose: 128.0 mg/kg/injection, schedule: Q01DX009 (ip), vehicle: saline with Tween-80) was 100 % of control and 106 % of control and 108 % of control.
`CSc1nccc(=O)n1-c1ccccc1` was tested, and the T/C (dose: 100.0 mg/kg/injection, schedule: Q04DX003 (ip), vehicle: Klucel (hydroxypropylcellulose) (HPC)) was 91 % of control and the T/C (dose: 200.0 mg/kg/injection, schedule: Q04DX003 (ip), vehicle: Klucel (hydroxypropylcellulose) (HPC)) was 92 % of control.
In the case of `C#CCOc1ccc(C(F)(F)F)cc1`, the T/C [15] is reported as 105 % of control, the T/C [5] is reported as 118 % of control and the T/C [16] is reported as 119 % of control.
In the case of `CC(O)CCOC(C[N+](=O)[O-])C(Cl)(Cl)Cl` (centres undefined), the T/C [5] is reported as 101 % of control and 104 % of control, the T/C [16] is reported as 117 % of control and the T/C [17] is reported as 102 % of control and 120 % of control.
With `O=C(N=Nc1c(O)[nH]c2ccccc12)C(F)(F)F` the T/C [7] was 108 % of control, the T/C [8] was 101 % of control and the T/C [9] was 108 % of control.
For `Cc1nc(C#N)c(=N)n(O)c1Cl`, the T/C [13] was 99 % of control and 102 % of control and 123 % of control, the T/C [14] was 104 % of control and 106 % of control and the T/C [15] was 110 % of control and 113 % of control.
With `CC1=CC2=C(C#N)C(=O)OC2(C)C(c2ccccc2)C1` (centres undefined) the T/C [10] was 100 % of control, the T/C [11] was 101 % of control and the T/C [12] was 100 % of control.
In the case of `O=c1[nH]cc(I)cc1I`, the T/C [16] is reported as 95 % of control, the T/C [17] is reported as 95 % of control and the T/C (dose: 400.0 mg/kg/injection, schedule: Q01DX009 (ip), vehicle: saline with Tween-80) is reported as 90 % of control.
In the case of `CC(=O)NC1C(NC(=S)NCC(=O)c2ccc(C)cc2)OC(COC(C)=O)C(OC(C)=O)C1OC(C)=O` (centres undefined), the T/C [7] is reported as 94 % of control, the T/C [8] is reported as 94 % of control and the T/C [9] is reported as 91 % of control.
For `O=C1OC2CSCC2O1` (centres undefined), the T/C [6] was 96 % of control, the T/C (dose: 100.0 mg/kg/injection, schedule: Q01DX009 (ip), vehicle: saline) was 104 % of control and the T/C (dose: 200.0 mg/kg/injection, schedule: Q01DX009 (ip), vehicle: saline) was 101 % of control.
In the case of `COC1OC2COC(c3ccccc3)OC2C(N)C1O` (centres undefined), the T/C [7] is reported as 106 % of control, the T/C [8] is reported as 101 % of control and the T/C [9] is reported as 104 % of control.
In the case of `COC1CC(OC2CCC3(C)C(=CCC4C3C(OC(C)=O)C(OC(=O)CC(C)C)C3(C)C(C(C)=O)CCC43O)C2)OC(C)C1OC1CC(OC)C(OC2CC(OC)C(OC3OC(C)C(O)C(OC)C3O)C(C)O2)C(C)O1` (centres undefined), the T/C (dose: 4.13 mg/kg/injection, schedule: Q01DX005 (ip), vehicle: Klucel (hydroxypropylcellulose) (HPC)) is reported as 87 % of control and the T/C (dose: 8.25 mg/kg/injection, schedule: Q01DX005 (ip), vehicle: Klucel (hydroxypropylcellulose) (HPC)) is reported as 101 % of control.
In the case of `CC1(C)OC(=O)N=C1c1ccccc1Cl`, the T/C [2] is reported as 108 % of control, the T/C [3] is reported as 104 % of control and the T/C [4] is reported as 108 % of control.
`CCCCc1ccc(-n2c(C)c(COC(=O)NC)c(COC(=O)NC)c2C)cc1` was tested, and the T/C (dose: 12.5 mg/kg/injection, schedule: Q01DX009 (ip), vehicle: Klucel (hydroxypropylcellulose) (HPC)) was 172 % of control and 190 % of control and the T/C (dose: 25.0 mg/kg/injection, schedule: Q01DX009 (ip), vehicle: Klucel (hydroxypropylcellulose) (HPC)) was 152 % of control and 190 % of control.
With `O=C(SCN1CCCCC1)c1ccccc1` the T/C [15] was 100 % of control, the T/C [5] was 113 % of control and the T/C [16] was 109 % of control.
